Measured values from patent US20240261297A1, “ANTI-CDK INHIBITORS FOR CANCER TREATMENT” (St. John's Cancer Institute, priority 2021, published 2024).

Experiments:
CDK1/cyclin B = CDK1/cyclin B (Homo sapiens, UniProt P06493); assay: Radioisotope-based protein kinase assay; format: biochemical; conditions: 10 μM ATP, 3-fold dilution from 10 μM
Method: (§1) A series of test compounds were selected for initial screening against CDK isoforms. Protein kinase assays were performed with gold standard radioisotope-based assay formats to measuring enzyme activity remaining in presence and absence of inhibitor.

CDK2/cyclin A = CDK2/cyclin A (Homo sapiens, UniProt P24941); assay: Radioisotope-based protein kinase assay; format: biochemical; conditions: 10 μM ATP, 3-fold dilution from 10 μM
Method: as §1

CDK2/cyclin E [1] = target: T1, CDK2/cyclin E (Homo sapiens, UniProt P24941); assay: Radioisotope-based protein kinase assay; format: biochemical; conditions: 10 μM ATP, 3-fold dilution from 10 μM
Method: as §1

CDK1/cyclin A = CDK1/cyclin A (Homo sapiens, UniProt P06493); assay: Radioisotope-based protein kinase assay; format: biochemical; conditions: 10 μM ATP, 3-fold dilution from 10 μM
Method: as §1

CDK9/cyclin T1 [2] = target: T2, CDK9/cyclin T1 (Homo sapiens, UniProt P50750); assay: Radioisotope-based protein kinase assay; format: biochemical; conditions: 10 μM ATP, 3-fold dilution from 10 μM
Method: as §1

CDK4/cyclin D1 = CDK4/cyclin D1 (Homo sapiens, UniProt P11802); assay: Radioisotope-based protein kinase assay; format: biochemical; conditions: 10 μM ATP, 3-fold dilution from 10 μM
Method: as §1

CDK7/cyclin H [3] = target: T3, CDK7/cyclin H (Homo sapiens, UniProt P50613); assay: Radioisotope-based protein kinase assay; format: biochemical; conditions: 10 μM ATP, 3-fold dilution from 10 μM
Method: as §1

CDK5/p25 = CDK5/p25 (Homo sapiens, UniProt Q00535); assay: Radioisotope-based protein kinase assay; format: biochemical; conditions: Table 1; 10 μM ATP
Method: as §1

CDK6/cyclin D1 = CDK6/cyclin D1 (Homo sapiens, UniProt Q00534); assay: Radioisotope-based protein kinase assay; format: biochemical; conditions: 10 μM ATP, 3-fold dilution from 10 μM
Method: as §1

[4] = tested on: pCDK2 and phospho-RB in MDA-MB-468 cells; assay: Western blot of pCDK2 and phospho-Rb in MDA-MB-468 cells; format: cell-based; conditions: increasing amounts
Method: FIGS. 3A-3B show target protein inhibition in Basal like TNBC cells. FIG. 3A is a Western blot showing pCDK2 levels in MDA-MB-468 cells with increasing dose of I-3 (CD11). FIG. 3B is a Western blot showing Phospho-Rb levels in MDA-MB-468 cells with increasing dose of I-3 (CD11).
Compound 1-3 efficacy was assessed in several in vitro assays. A nanoBrET assay was used to measure intracellular kinase activity of I-3 with CDK2, CDK1, CDK7 and CDK9. Briefly, HEK293 cells were transfected with CDK2, CDK1, CDK7 and CDK9. The transfected cells were treated in duplicate with test compound I-3 (starting at 10 μM, 10-dose with 3-fold dilution) and target engagement was measured by NanoBRET assay (FIG. 2A and Table 4). Cellular thermal shift assay (CETSA) was also performed to evaluate drug target interaction in the cells. The CETSA method is built upon two concepts: cellular thermal shift and isothermal dose-response. The cellular thermal shift assay is based on the established fact that proteins that are complexed to a ligand become more resistant to heat induced unfolding. Isothermal dose response is used to determine a compound's potency in binding the target by measuring the thermal stability of the target treated with various concentrations of compound at a fixed temperature. […]

[5] = Snapshot plasma pharmacokinetics in mice; format: in vivo; conditions: mouse, in vivo; for AUC(0-inf): AUCinf
Method: Evaluation of pharmacokinetic (PK) parameters and efficacy of I-3 in a xenograft model was carried out in mice. […] Briefly, mice were treated with 5 mg/kg of 1-3 or merioline-3. Plasma was then collected at different time points and measured for drug concentration. […] PK parameters of I-3 was also compared to a panel of CDK inhibitors (Table 13). […] Likewise, Ribociclib has a better Cmax than I-3, but it is primarily a CDK4/6 inhibitor.

[6] = tested on: caspase 3/7 in MDA-MB-468 cells; assay: Caspase Glo 3/7 activity assay in MDA-MB-468 cells; format: cell-based; conditions: 24 hours
Method: Further anti-proliferative effect of 1-3 was evaluated in the TNBC cell line MDA-MB-468 based on biomarker (CDK2) inhibition. […] The mechanistic cell cycle block is aligned with biomarker. In addition, Caspase Glo 3/7 activation was tested to confirm the sub-G1 (apoptotic) arrest in cell cycle.

CDK2/cyclin E [7] = target: T1, CDK2/cyclin E; assay: Cellular thermal shift assay (CETSA), isothermal dose response; format: binding; design: endogenous in cells; conditions: cell lysate, from 300 nM, 1 hour, 58° C. 20 min, Western blot
Method: (§2) Compound 1-3 efficacy was assessed in several in vitro assays. A nanoBrET assay was used to measure intracellular kinase activity of I-3 with CDK2, CDK1, CDK7 and CDK9. Briefly, HEK293 cells were transfected with CDK2, CDK1, CDK7 and CDK9. The transfected cells were treated in duplicate with test compound I-3 (starting at 10 μM, 10-dose with 3-fold dilution) and target engagement was measured by NanoBRET assay (FIG. 2A and Table 4). Cellular thermal shift assay (CETSA) was also performed to evaluate drug target interaction in the cells. The CETSA method is built upon two concepts: cellular thermal shift and isothermal dose-response. The cellular thermal shift assay is based on the established fact that proteins that are complexed to a ligand become more resistant to heat induced unfolding. Isothermal dose response is used to determine a compound's potency in binding the target by measuring the thermal stability of the target treated with various concentrations of compound at a fixed temperature. Briefly, cell lysate was treated with I-3 (starting at 300 nM, 10-dose with 3-fold dilution) and incubated for 1 hour and cell lysates were then subjected to predetermined thermal aggregation temperature (58° C.) for another 20 min. Western blot was performed to determine the levels of target protein bound to I-3 (FIG. 2B).

CDK5/p35 = CDK5/p35 (Homo sapiens, UniProt Q00535); assay: Radioisotope-based protein kinase assay; format: biochemical; conditions: Table 2
Method: as §1
The activity of compound I-3 was compared to that of a panel of CDKs and their respective binding partners (Tables 2 and 3).

CDK1/Cyclin B1 = target: T4, CDK1/Cyclin B1 (Homo sapiens, UniProt P06493); assay: NanoBRET target engagement intracellular kinase assay in HEK293 cells; format: cell-based; conditions: transfected HEK293 cells; 10-dose, 3-fold from 10 μM, duplicate
T4 construct: expressed in transfected cells; host or cells: HEK293
Method: as §2

CDK2/Cyclin E1 = target: T5, CDK2/Cyclin E1 (Homo sapiens, UniProt P24941); assay: as above; format: cell-based; conditions: transfected HEK293 cells; 10-dose, 3-fold from 10 μM, duplicate
T5 construct: expressed in transfected cells; host or cells: HEK293
Method: as §2

CDK9/cyclin T1 [8] = target: T2, CDK9/cyclin T1; assay: as above; format: cell-based; conditions: transfected HEK293 cells; 10-dose, 3-fold from 10 μM, duplicate
Method: as §2

CDK7/cyclin H [9] = target: T3, CDK7/cyclin H; assay: as above; format: cell-based; conditions: transfected HEK293 cells; 10-dose, 3-fold from 10 μM, duplicate
Method: as §2

PLC/PRF/5 cells = assay: Cell viability of HCC cells by CellTiter Glo assay; format: cell-based; conditions: Homo sapiens, 72 hours
Method: FIG. 5 is a graph showing cell viability of hepatocellular carcinoma (HCC) cell lines treated with I-3 for 72 hours, assessed by CellTiter Glo assay, with the control level of cells considered 100%.
I-3 was also tested for efficacy on hepatocellular carcinoma (HCC) cell lines. Cell viability was measured by CellTiter Glo assay (FIG. 5 and Table 8).

T3 sequence (P50613 whole entry): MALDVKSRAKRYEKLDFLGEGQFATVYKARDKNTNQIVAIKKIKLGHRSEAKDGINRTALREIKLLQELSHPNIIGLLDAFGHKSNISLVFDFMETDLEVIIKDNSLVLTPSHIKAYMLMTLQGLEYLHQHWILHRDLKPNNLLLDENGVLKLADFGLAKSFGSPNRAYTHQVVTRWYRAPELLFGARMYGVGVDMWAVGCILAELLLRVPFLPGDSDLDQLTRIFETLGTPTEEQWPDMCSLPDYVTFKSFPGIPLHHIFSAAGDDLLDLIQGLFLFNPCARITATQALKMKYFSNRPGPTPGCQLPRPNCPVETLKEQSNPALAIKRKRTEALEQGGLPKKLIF
T3 sequence (P51946 whole entry partner): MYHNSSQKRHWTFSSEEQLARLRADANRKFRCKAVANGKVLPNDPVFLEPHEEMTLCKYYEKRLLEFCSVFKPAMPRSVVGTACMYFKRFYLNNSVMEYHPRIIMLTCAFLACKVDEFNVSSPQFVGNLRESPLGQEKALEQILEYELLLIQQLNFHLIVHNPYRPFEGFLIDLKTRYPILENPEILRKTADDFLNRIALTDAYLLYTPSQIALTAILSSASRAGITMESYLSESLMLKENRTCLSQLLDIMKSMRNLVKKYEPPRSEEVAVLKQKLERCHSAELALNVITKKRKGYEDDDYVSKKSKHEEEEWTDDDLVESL
T3 sequence (P51948 whole entry partner): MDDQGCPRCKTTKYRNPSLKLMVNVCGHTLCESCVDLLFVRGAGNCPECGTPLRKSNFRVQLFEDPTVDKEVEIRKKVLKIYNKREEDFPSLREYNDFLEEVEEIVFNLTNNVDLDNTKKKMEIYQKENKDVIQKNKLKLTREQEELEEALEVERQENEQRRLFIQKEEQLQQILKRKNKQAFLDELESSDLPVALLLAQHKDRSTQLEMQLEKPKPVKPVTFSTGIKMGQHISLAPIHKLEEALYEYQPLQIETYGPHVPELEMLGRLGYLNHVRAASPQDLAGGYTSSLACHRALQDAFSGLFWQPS
T2 sequence (P50750 whole entry): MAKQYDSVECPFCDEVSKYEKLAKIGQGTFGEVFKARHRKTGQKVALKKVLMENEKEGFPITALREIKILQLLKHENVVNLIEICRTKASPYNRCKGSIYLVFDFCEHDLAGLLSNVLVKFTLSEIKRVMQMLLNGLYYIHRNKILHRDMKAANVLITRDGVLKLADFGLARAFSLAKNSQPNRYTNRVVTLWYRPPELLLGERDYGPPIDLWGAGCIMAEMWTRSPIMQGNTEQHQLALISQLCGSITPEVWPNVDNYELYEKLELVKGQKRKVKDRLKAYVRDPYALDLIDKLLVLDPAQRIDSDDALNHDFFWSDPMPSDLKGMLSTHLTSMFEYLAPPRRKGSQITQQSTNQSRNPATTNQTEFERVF
T2 sequence (O60563 whole entry partner): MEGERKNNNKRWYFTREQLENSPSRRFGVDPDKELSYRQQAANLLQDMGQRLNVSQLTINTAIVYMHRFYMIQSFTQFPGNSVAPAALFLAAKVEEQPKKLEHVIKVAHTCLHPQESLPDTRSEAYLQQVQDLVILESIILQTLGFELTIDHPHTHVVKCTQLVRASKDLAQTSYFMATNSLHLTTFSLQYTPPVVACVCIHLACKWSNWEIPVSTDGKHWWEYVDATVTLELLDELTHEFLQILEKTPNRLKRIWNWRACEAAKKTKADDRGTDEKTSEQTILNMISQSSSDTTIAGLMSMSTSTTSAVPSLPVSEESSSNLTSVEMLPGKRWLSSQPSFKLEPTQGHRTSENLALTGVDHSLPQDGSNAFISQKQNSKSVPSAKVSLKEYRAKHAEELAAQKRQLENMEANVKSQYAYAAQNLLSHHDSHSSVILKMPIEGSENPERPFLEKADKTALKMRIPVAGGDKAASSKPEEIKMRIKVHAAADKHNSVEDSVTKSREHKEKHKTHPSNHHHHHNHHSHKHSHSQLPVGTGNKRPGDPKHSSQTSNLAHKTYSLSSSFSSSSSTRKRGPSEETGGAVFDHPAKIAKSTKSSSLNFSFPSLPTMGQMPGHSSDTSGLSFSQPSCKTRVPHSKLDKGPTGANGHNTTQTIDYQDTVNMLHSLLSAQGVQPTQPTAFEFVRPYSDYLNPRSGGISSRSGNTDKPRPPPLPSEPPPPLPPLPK
Chain of CDK4/cyclin D1 (P11802 whole entry): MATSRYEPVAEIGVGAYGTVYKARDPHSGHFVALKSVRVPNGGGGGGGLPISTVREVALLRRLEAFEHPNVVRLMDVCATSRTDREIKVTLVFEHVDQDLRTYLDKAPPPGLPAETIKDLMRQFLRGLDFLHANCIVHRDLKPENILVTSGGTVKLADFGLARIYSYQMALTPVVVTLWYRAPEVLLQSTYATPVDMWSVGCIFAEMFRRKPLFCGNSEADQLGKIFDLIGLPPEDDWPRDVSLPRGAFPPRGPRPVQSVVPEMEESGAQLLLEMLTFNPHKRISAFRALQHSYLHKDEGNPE
Chain of CDK4/cyclin D1 (P24385 whole entry partner): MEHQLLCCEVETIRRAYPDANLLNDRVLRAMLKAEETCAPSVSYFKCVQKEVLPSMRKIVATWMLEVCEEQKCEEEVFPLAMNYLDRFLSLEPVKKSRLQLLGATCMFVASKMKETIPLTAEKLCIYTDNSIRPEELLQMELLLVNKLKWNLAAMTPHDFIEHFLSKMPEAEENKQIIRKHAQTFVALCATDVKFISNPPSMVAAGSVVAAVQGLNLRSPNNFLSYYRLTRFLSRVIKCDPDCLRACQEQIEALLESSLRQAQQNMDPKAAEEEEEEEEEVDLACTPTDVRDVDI
Chain of CDK5/p25 (Q00535 whole entry): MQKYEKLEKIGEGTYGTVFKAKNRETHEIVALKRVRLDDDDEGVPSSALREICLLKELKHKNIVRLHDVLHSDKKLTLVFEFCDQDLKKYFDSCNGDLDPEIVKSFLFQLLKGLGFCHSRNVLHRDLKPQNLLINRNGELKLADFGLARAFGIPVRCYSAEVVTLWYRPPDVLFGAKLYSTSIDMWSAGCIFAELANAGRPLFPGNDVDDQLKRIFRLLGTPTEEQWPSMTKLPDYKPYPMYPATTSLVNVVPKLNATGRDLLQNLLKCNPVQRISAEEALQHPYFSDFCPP
Chain of CDK5/p25 (Q15078 99-307 partner limits assumed): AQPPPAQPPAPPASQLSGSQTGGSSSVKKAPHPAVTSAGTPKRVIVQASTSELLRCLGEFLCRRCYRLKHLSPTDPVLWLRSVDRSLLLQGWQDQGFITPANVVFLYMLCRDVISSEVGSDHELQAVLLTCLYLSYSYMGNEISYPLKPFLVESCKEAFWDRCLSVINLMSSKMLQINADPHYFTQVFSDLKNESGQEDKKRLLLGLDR
Chain of CDK5/p35 (Q00535 whole entry): as the sequence (Q00535 whole entry) above
Chain of CDK5/p35 (Q15078 whole entry partner): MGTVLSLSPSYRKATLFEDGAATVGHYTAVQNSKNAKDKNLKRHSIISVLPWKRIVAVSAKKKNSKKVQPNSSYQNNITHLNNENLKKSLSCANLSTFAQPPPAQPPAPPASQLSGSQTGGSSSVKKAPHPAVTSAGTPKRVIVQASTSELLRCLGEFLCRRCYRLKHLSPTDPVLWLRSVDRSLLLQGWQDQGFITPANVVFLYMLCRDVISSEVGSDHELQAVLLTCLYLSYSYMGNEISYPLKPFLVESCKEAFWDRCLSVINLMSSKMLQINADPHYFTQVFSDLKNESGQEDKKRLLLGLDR
Chain of CDK6/cyclin D1 (Q00534 whole entry): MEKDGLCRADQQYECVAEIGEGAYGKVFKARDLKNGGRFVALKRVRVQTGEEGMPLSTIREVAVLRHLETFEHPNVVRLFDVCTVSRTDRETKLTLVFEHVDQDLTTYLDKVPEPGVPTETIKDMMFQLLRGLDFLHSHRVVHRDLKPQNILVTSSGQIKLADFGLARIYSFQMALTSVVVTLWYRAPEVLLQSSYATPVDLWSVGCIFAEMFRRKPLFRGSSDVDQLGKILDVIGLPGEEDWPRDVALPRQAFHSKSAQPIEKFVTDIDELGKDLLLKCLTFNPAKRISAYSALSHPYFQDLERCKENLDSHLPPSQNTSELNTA
Chain of CDK6/cyclin D1 (P24385 whole entry partner): as the sequence (P24385 whole entry partner) above
Chain of CDK1/cyclin B (P06493 whole entry, canonical isoform): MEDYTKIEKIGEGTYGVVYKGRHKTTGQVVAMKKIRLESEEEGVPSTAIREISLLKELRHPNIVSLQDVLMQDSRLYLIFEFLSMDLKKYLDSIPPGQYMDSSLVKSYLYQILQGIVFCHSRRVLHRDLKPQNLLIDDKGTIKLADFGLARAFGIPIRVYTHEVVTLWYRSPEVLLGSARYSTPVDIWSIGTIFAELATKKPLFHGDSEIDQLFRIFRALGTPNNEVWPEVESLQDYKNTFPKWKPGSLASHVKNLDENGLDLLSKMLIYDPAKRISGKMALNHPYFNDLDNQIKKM
Chain of CDK1/cyclin B (P14635 whole entry partner, canonical isoform): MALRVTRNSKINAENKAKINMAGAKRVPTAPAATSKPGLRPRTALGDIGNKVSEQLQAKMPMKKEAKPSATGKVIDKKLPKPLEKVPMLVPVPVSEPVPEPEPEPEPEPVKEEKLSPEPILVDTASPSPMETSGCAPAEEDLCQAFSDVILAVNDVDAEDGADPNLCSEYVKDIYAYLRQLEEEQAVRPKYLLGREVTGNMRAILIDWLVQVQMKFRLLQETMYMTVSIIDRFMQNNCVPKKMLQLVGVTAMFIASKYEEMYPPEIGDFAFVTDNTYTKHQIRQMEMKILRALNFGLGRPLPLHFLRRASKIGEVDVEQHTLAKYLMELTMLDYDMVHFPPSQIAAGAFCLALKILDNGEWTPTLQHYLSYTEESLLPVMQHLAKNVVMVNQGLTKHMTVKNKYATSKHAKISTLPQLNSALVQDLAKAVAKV

## Nc1nccc(-c2c[nH]c3nccc(Oc4cccc(F)c4)c23)n1 [I-3, 4-(4-(3-fluorophenoxy)-1H-pyrrolo[2,3-b]pyridin-3-yl)pyrimidin-2-amine]
CDK1/cyclin B
  IC50: 8 nM
CDK2/cyclin A
  IC50: 4 nM
CDK2/cyclin E [1]
  IC50: 4 nM
CDK1/cyclin A
  IC50: 6 nM
CDK9/cyclin T1 [2]
  IC50: 7 nM
CDK4/cyclin D1
  IC50: 414 nM
CDK7/cyclin H [3]
  IC50: 18 nM
CDK5/p25
  IC50: 8 nM
CDK6/cyclin D1
  IC50: 285 nM
[4]
  pCDK2 levels: reduced
  phosphor-RB levels: reduced
[5]
  Tmax: 186 min
  AUC(0-inf): 1870 ng·h/mL
[5]; Cmax
  Cmax: 483 ng/mL
[5]; iv, 5 mg/kg
  Tmax: 5 min
  half-life: 69.1 min
  AUC(0-inf): 3700 ng·h/mL
[5]; iv, 5 mg/kg, Cmax
  Cmax: 5080 ng/mL
[5]; po, 5 mg/kg
  Cmax: 178 ng/mL
  Tmax: 30 min
  half-life: 186 min
  AUC(0-inf): 1480 ng·h/mL
[6]
  Caspase 3/7 activation: clear activation of caspase 3/7
[6]; Homo sapiens
  IC50: 652 nM
CDK2/cyclin E [7]
  Binding of CDK2/Cyclin E in drug target engagement methods (CETSA, NanoBRET): potent binding (nanomolar range)
CDK5/p35
  IC50: 8 nM
CDK1/Cyclin B1
  IC50: 1070 nM
CDK2/Cyclin E1
  IC50: 22 nM
CDK9/cyclin T1 [8]
  IC50: 702 nM
CDK7/cyclin H [9]
  IC50: 403 nM
PLC/PRF/5 cells
  IC50: 1520 nM
